We go through two compounds from patent publication US10201532B2, “Compounds and their use” (ALLECRA THERAPEUTICS GMBH, priority 2010, dated 2019).

Assay [1] has as its system K. pneumoniae ATCC BAA-1705 (KPC2). The experiment in a line: Disk zone of inhibition, antibiotic + Compound-1 on same disk (Methodology 2). Conditions: CAZ 30 μg or IPM 10 μg disk alone. In kind it is cell-based, Klebsiella pneumoniae. From the text:
(§1) In this experiment, Compound-1 is used as a diagnostic reagent for the detection of β-lactamases belonging to the families KPC & ESBL (e.g., SHV18) producing Enterobacteriaceae. A simple set of absorbent paper disks impregnated with antibiotic on agar medium is used for the detection.
(§2) • 0.5 McFarland of the test organism was inoculated at 1:10 dilution on Muller • Hinton Agar plates • Test organisms: Klebsiella pneumoniae (K.p) ATCC BAA-1705, Klebsiella pneumoniae ATCC 700603, Escherichia coli (E.c) Ecoli233 • Carbapenem (e.g., Imipenem [IPM] 10 μg) and cephalosporin (e.g., Ceftazidime [CAZ] 30 μg) paper disks (7 mm) were placed on the inoculated agar plates • Compound-1 (60 μg) disk was placed at a distance of 7 & 10 mm from the carbapenem and cephalosporin disks. • The presence of expressed carbapenemases or ESBLs was measured as the expansion of Imipenem or Ceftazidime's inhibition zones due to synergy in the presence of Compound-1.
(§3) The methodology remains the same as Methodology 1 except the following change • Compound-1 (60 μg) was added on the same disk in combination with a carbapenem (e.g., Imipenem 10 μg) or cephalosporin (e.g., Ceftazidime 30 μg) and placed on the inoculated agar plate. • The presence of the expressed carbapenemases or ESBLs was measured as an increase in Imipenem or Ceftazidime's zone diameter in combination with Compound-1 compared to antibiotic alone. Results

The test system of assay [2] is E. coli Ecoli233 (KPC3). Described as above. The assay is classed as cell-based, Escherichia coli. Conditions: CAZ 30 μg or IPM 10 μg disk alone.
Text: as §1, §2, §3

In assay [3] the test system is K. pneumoniae ATCC 700603 (SHV18). The description is as above. In kind it is cell-based, Klebsiella pneumoniae. Conditions: CAZ 30 μg or IPM 10 μg disk alone.
Text: as §1
as §2, with “Compound-1. Results:” for “Compound-1.”
as §3

Assay [4] relates to E. coli ATCC 25922 (β-lac-ve). The assay is described as above. The assay is classed as cell-based, Escherichia coli. Conditions: CAZ 30 μg or IPM 10 μg disk alone; ATCC 25922.
Assay [5] deals with KPC-2 producing K. pneumoniae (ATCC BAA-1705). The experiment in a line: Synergistic broth micro-dilution MIC (checkerboard). The assay is classed as cell-based, Klebsiella pneumoniae.
Assay [6] concerns KPC-3 expressing E. coli (J53 R6206). Described as above. Conditions: no BLI. The assay is classed as cell-based, Escherichia coli.
For assay [7], the system named is K. pneumoniae UMM3 (KPC2). The experiment in a line: Synergistic broth micro-dilution MIC. The assay is classed as cell-based, Klebsiella pneumoniae. Conditions: BLI at 4 μg/mL. On the technique in general: In broth dilution the organism is exposed to a series of concentrations in liquid medium.
The test system of assay [8] is E. cloacae 01 MGH 049 (KPC2, AmpC). The experiment in a line: Synergistic broth micro-dilution MIC. In kind it is cell-based. Conditions: BLI at 4 μg/mL.
In assay [9] the test system is E. coli Ecoli233 (KPC3). Put plainly: Synergistic broth micro-dilution MIC. The assay is classed as cell-based, Escherichia coli.
For assay [10], the system named is K. pneumoniae NCTC 13438 (KPC3). Put plainly: Synergistic broth micro-dilution MIC. Conditions: BLI at 4 μg/mL. The assay is classed as cell-based, Klebsiella pneumoniae.
The test system of assay [11] is E. coli BAA-201 (TEM-3). The experiment in a line: MIC of Piperacillin with inhibitor, ESBL isolates. In kind it is cell-based.
The test system of assay [12] is E. coli BAA-197 (TEM-12). The experiment in a line: MIC of Piperacillin with inhibitor, ESBL isolates. The assay is classed as cell-based, Escherichia coli.
The test system of assay [13] is E. coli BAA-198 (TEM-26). Put plainly: MIC of Piperacillin with inhibitor, ESBL isolates. In kind it is cell-based, Escherichia coli.
Assay [14] relates to P. mirabilis BAA-663 (TEM-89). The experiment in a line: MIC of Piperacillin with inhibitor, ESBL isolates. In kind it is cell-based.
Assay [15] relates to E. coli BAA-199 (SHV-3). Put plainly: MIC of Piperacillin with inhibitor, ESBL isolates. In kind it is cell-based, Escherichia coli.
In assay [16] the test system is E. coli BAA-200 (SHV-4). The experiment in a line: MIC of Piperacillin with inhibitor, ESBL isolates. The assay is classed as cell-based, Escherichia coli.
Assay [17] has as its system K. pneumoniae 700603 (SHV-18). Put plainly: MIC of Piperacillin with inhibitor, ESBL isolates. The assay is classed as cell-based, Klebsiella pneumoniae.

By MIC is commonly meant the least concentration at which growth counts as inhibited. Turning to `CC(C)(O/N=C(\C(=O)N[C@@H]1C(=O)N2C(C(=O)[O-])=C(C[n+]3ccccc3)CS[C@H]12)c1csc(N)n1)C(=O)O` [Ceftazidime], the “Zone of inhibition (ZOI), antibiotic alone” value is reported as 12 mm in [1], 11 mm in assay [2], 12 mm in [3] and 25 mm in [4]. In addition, the minimum inhibitory concentration (MIC) in assay [5] (Klebsiella pneumoniae, ATCCBAA1705, no BLI, ATCC BAA-1705, read-out: MIC of antibiotic alone (no BLI)) was above 128 µg/mL. In addition, the “MIC of antibiotic alone (no BLI)” value in assay [6] is above 32 µg/mL.
With `C[n+]1ccn(C[C@@]2(C)[C@H](C(=O)[O-])N3C(=O)C[C@H]3S2(=O)=O)c1` [Compound-12, (2S,3S,5R)-3-Methyl-3-(3-methyl-imidazol-3-ium-1-ylmethyl)-4,4,7-trioxo-4-thia-1-azabicyclo[3.2.0]heptane-2-carboxylate], the “MIC of Imipenem in combination with BLI” value in assay [5] (BLI at 4 μg/mL, ATCC BAA-1705) is 4 µg/mL; in assay [5] (BLI at 16 μg/mL, ATCC BAA-1705), 4 µg/mL; in assay [7], 2 µg/mL; in assay [8], 8 µg/mL; in [9] (BLI at 4 μg/mL), 4 µg/mL; in assay [9] (BLI at 16 μg/mL) it was 1 µg/mL. The “MIC of Imipenem in combination with BLI” value in [10] is 64 µg/mL. The “Activity with imipenem against the KPC (2 & 3) producing strains, in words” value in assay [5] (summary of Table 2, all five strains) is on record as “improved activity”. The “MIC of Piperacillin with inhibitor” value was 2 µg/mL in [11] (inhibitor at 1 μg/mL); 4 µg/mL in [11] (inhibitor at 2 μg/mL); 4 µg/mL in assay [11] (inhibitor at 4 μg/mL); 4 µg/mL in assay [12] (inhibitor at 1 μg/mL); 4 µg/mL in assay [12] (inhibitor at 2 μg/mL); 4 µg/mL in assay [12] (inhibitor at 4 μg/mL). The “MIC of Piperacillin with inhibitor” value in assay [13] (inhibitor at 1 μg/mL) is 4 µg/mL; in assay [13] (inhibitor at 2 μg/mL) it was 4 µg/mL; in assay [13] (inhibitor at 4 μg/mL), 4 µg/mL; in assay [14] (inhibitor at 1 μg/mL), 8 µg/mL; in assay [14] (inhibitor at 2 μg/mL), 16 µg/mL; in [14] (inhibitor at 4 μg/mL) it was above 128 µg/mL. Further, the “MIC of Piperacillin with inhibitor” value was above 128 µg/mL in assay [15] (inhibitor at 1 μg/mL); above 128 µg/mL in [15] (inhibitor at 2 μg/mL); 2 µg/mL in assay [15] (inhibitor at 4 μg/mL); 32 µg/mL in assay [16] (inhibitor at 1 μg/mL); 8 µg/mL in [16] (inhibitor at 2 μg/mL); 4 µg/mL in assay [16] (inhibitor at 4 μg/mL). Further, the “MIC of Piperacillin with inhibitor” value was 8 µg/mL in assay [17] (inhibitor at 1 μg/mL), 16 µg/mL in assay [17] (inhibitor at 2 μg/mL) and 8 µg/mL in assay [17] (inhibitor at 4 μg/mL).
